Test results from US20050250801A1, “Method of treating cancer with azaspirane compositions” (priority 2003, published 2005).
Where a name gives a salt, the structure may show the parent alone.

Test: Excretion of radioactivity after single oral administration to male rats, target dose 1 mg free base/kg
Type: in vivo, Sprague Dawley rats
Parameters: Excretion of Radioactivity: unit not given beside the values
Description: [^14C] N,N,-diethyl-8,8-dipropyl-2-azaspiro[4,5]decane-2-propanamine dimaleate salt, (“Compound II”) with a specific activity of 91 uCi/mg and chemical purity >99%, and non-radiolabeled dimaleate salt of N,N,-diethyl-8,8-dipropyl-2-azaspiro[4,5]decane-2-propanamine dimaleate (Compound 1) chemical purity >98%, respectively, were used in this study. The site of the radiocarbon label in Compound II is depicted by an asterisk in Formula II. The non-radiolabeled material was used for reference purposes. The radiolabeled material was stored at ca […] in the dark and the non-radiolabeled material at ca −20° C. in the dark.
Three healthy male Sprague Dawley rats (Crl:CD(SD)BR), age ca 8-9 weeks, body weights at dosing 237-255 g, were supplied by Charles River (UK) Limited. The animals were housed in holding cages suitable for this species for 8 days prior to use. SDS Rat and Mouse Maintenance Diet No. 1, (Special Diets Services, Witham Essex), and mains quality water were available ad libitum throughout. The diet and water supplied to the animals were routinely analyzed for quality and no problems were detected. Holding and study areas had automatic control of light cycle and temperature. The actual range of temperature measured during the study was 17-25° C. with relative humidity measured at 60%.
The dose was prepared for oral administration on the day of dosing. […]
For each rat, an aliquot of the dose solution was administered orally by gavage. […] For each dose, the combined weight of dose and dosing equipment were recorded prior to dosing and the discharged dosing equipment was weighed after dosing. The concentration of radioactive material in each dose solution was also determined.
Immediately following dosing, the rats were placed into all glass metabolism cages suitable for the quantitative collection of excreta and expired air. All samples were collected into individual, uniquely labeled containers.
[…] The collection containers were cooled by solid CO2 during the first 48 hours after dosing.
[…] Collection containers were cooled by solid CO2 during the first 48 hours.
At the time of each feces collection, each cage was washed with water (ca 750 mL) and the washings were retained for radioassay. During the periods 0-24 h and 24-48 hours after dosing, expired air was passed through 2 serial traps containing ethanolamine:ethoxyethaonol (3:7, v/v) in order to effect the removal of CO2. The trap solvent was sampled for radioassay at the end of each collection period.
At 168 hours post dose, each animal was killed by CO2 narcosis and cervical dislocation. Gastrointestinal tracts were removed and retained separately from the carcasses in preparation for radioassay.
All urine and feces samples were stored frozen ([…]) prior to and after analysis. Cage washes were stored at room temperature until analysis was complete and were then discarded. All carcasses and gastro-intestinal tracts were stored frozen at ca-20° C. prior to analysis.
Duplicate aliquots of urine (ca 0.3 mL) and cage washings (ca 1 mL) were dispensed, diluted to 1 mL with distilled water (if considered necessary) and mixed with Quickzint 1 scintillation fluid (10 mL; Zinsser Analytic Maidenhead, UK).
Feces were homogenised in 1 to 2 volumes of water with the sample and homogenate weight recorded. Duplicate aliquots (ca 0.3) were taken from each sample and dispensed onto combustopads contained in combustocones (Can berra Packard Limited, Pangbourne, UK). When dry, these samples were combusted using a Packard Tri-Carb 306 Automatic Sample Oxidiser. The resultant ^14CO2 generated was collected by absorption in Carbo-Sorb® (8 mL; Can berra Packard Limited) to which Permafluor®E^+ scintillation fluid (10 mL; Can berra Packard Limited) was added.
For each rat, the carcass and gastro-intestinal tract with contents were solubilised in Soluene 350 (Canberra Packard). When dissolved, portions of the digest (ca 0.1 mL) were taken for liquid scintillation spectrometry. […]

**Q.** With `CCCC1(CCC)CCC2(CCN(CCCN(CC)CC)C2)CC1` [Compound II, [^14C] N,N,-diethyl-8,8-dipropyl-2-azaspiro[4,5]decane-2-propanamine dimaleate salt] as the molecule, how does the “Excretion of Radioactivity” value (Feces 72-96 hours, #1 male) read?
**A.** Its value is 7.5.

**Q.** And the “Excretion of Radioactivity” value (Feces 72-96 hours, #2 male)?
**A.** Its value is 7.8.

**Q.** And the “Excretion of Radioactivity” value (Feces 72-96 hours, #3 male)?
**A.** The value was 8.0.

**Q.** What about the “Excretion of Radioactivity” value (Feces 72-96 hours, Mean) of the same molecule?
**A.** The value was 7.8.

**Q.** What about the “Excretion of Radioactivity” value (Feces 96-120 hours, #1 male) of the same molecule?
**A.** Its value is 5.5.

**Q.** What about the “Excretion of Radioactivity” value (Feces 96-120 hours, #2 male) of the same molecule?
**A.** Its value is 4.1.

**Q.** What about the “Excretion of Radioactivity” value (Feces 96-120 hours, #3 male) of the same molecule?
**A.** The value was 6.4.

**Q.** And the “Excretion of Radioactivity” value (Feces 96-120 hours, Mean)?
**A.** Its value is 5.3.

**Q.** What about the “Excretion of Radioactivity” value (Feces 120-144 hours, #1 male) of the same molecule?
**A.** The value was 3.5.

**Q.** And the “Excretion of Radioactivity” value (Feces 120-144 hours, #2 male)?
**A.** Its value is 3.5.

**Q.** And the “Excretion of Radioactivity” value (Feces 120-144 hours, #3 male)?
**A.** Its value is 4.3.

**Q.** And the “Excretion of Radioactivity” value (Feces 120-144 hours, Mean)?
**A.** The value was 3.8.

**Q.** What about the “Excretion of Radioactivity” value (Feces 144-168 hours, #1 male) of the same molecule?
**A.** The value was 3.0.

**Q.** And the “Excretion of Radioactivity” value (Feces 144-168 hours, #2 male)?
**A.** The value was 3.2.

**Q.** What about the “Excretion of Radioactivity” value (Feces 144-168 hours, #3 male) of the same molecule?
**A.** The value was 3.1.

**Q.** And the “Excretion of Radioactivity” value (Feces 144-168 hours, Mean)?
**A.** The value was 3.1.

**Q.** What about the “Recovery of Radioactivity” value (GI Tract, at 168 hours, #1 male) of the same molecule?
**A.** Its value is 13.8 % administered dose.

**Q.** What about the “Recovery of Radioactivity” value (GI Tract, at 168 hours, #2 male) of the same molecule?
**A.** The value was 13.3 % administered dose.

**Q.** And the “Recovery of Radioactivity” value (GI Tract, at 168 hours, #3 male)?
**A.** The value was 10.5 % administered dose.

**Q.** And the “Recovery of Radioactivity” value (GI Tract, at 168 hours, Mean)?
**A.** Its value is 12.5 % administered dose.

**Q.** What about the “Recovery of Radioactivity” value (Total, 168 hour collection period, #1 male) of the same molecule?
**A.** The value was 96.7 % administered dose.

**Q.** What about the “Recovery of Radioactivity” value (Total, 168 hour collection period, #2 male) of the same molecule?
**A.** Its value is 103.0 % administered dose.

**Q.** What about the “Recovery of Radioactivity” value (Total, 168 hour collection period, #3 male) of the same molecule?
**A.** Its value is 103.2 % administered dose.

**Q.** What about the “Recovery of Radioactivity” value (Total, 168 hour collection period, Mean) of the same molecule?
**A.** The value was 101.0 % administered dose.

**Q.** And the “Excretion of Radioactivity” value (Urine 0-6 hours, #1 male)?
**A.** Its value is 0.1.

**Q.** And the “Excretion of Radioactivity” value (Urine 0-168 hours, #1 male)?
**A.** Its value is 6.9.

**Q.** And the “Excretion of Radioactivity” value (Urine 0-168 hours, #2 male)?
**A.** Its value is 8.9.

**Q.** What about the “Excretion of Radioactivity” value (Urine 0-168 hours, #3 male) of the same molecule?
**A.** Its value is 9.8.

**Q.** And the “Excretion of Radioactivity” value (Urine 0-168 hours, Mean)?
**A.** The value was 8.5.

**Q.** What about the “Excretion of Radioactivity” value (Urine 6-24 hours, #1 male) of the same molecule?
**A.** The value was 0.4.

**Q.** And the “Excretion of Radioactivity” value (Urine 6-24 hours, #2 male)?
**A.** The value was 0.5.

**Q.** What about the “Excretion of Radioactivity” value (Urine 6-24 hours, #3 male) of the same molecule?
**A.** Its value is 0.5.

**Q.** What about the “Excretion of Radioactivity” value (Urine 6-24 hours, Mean) of the same molecule?
**A.** The value was 0.5.

**Q.** What about the “Excretion of Radioactivity” value (Urine 24-48 hours, #1 male) of the same molecule?
**A.** The value was 1.0.

**Q.** And the “Excretion of Radioactivity” value (Urine 24-48 hours, #2 male)?
**A.** Its value is 1.4.

**Q.** What about the “Excretion of Radioactivity” value (Urine 24-48 hours, #3 male) of the same molecule?
**A.** The value was 1.4.

**Q.** What about the “Excretion of Radioactivity” value (Urine 24-48 hours, Mean) of the same molecule?
**A.** The value was 1.3.

**Q.** What about the “Excretion of Radioactivity” value (Urine 48-72 hours, #1 male) of the same molecule?
**A.** Its value is 1.2.

**Q.** And the “Excretion of Radioactivity” value (Urine 48-72 hours, #2 male)?
**A.** Its value is 1.5.

**Q.** What about the “Excretion of Radioactivity” value (Urine 48-72 hours, #3 male) of the same molecule?
**A.** Its value is 1.7.

**Q.** What about the “Excretion of Radioactivity” value (Urine 48-72 hours, Mean) of the same molecule?
**A.** Its value is 1.5.

**Q.** And the “Excretion of Radioactivity” value (Urine 72-96 hours, #1 male)?
**A.** Its value is 1.3.

**Q.** And the “Excretion of Radioactivity” value (Urine 72-96 hours, #2 male)?
**A.** The value was 1.6.

**Q.** And the “Excretion of Radioactivity” value (Urine 72-96 hours, #3 male)?
**A.** The value was 2.0.

**Q.** And the “Excretion of Radioactivity” value (Urine 72-96 hours, Mean)?
**A.** The value was 1.6.

**Q.** What about the “Excretion of Radioactivity” value (Urine 96-120 hours, #1 male) of the same molecule?
**A.** The value was 1.2.

**Q.** What about the “Excretion of Radioactivity” value (Urine 96-120 hours, #2 male) of the same molecule?
**A.** The value was 1.5.

**Q.** And the “Excretion of Radioactivity” value (Urine 96-120 hours, #3 male)?
**A.** Its value is 1.6.

**Q.** What about the “Excretion of Radioactivity” value (Urine 96-120 hours, Mean) of the same molecule?
**A.** Its value is 1.4.

**Q.** What about the “Excretion of Radioactivity” value (Urine 120-144 hours, #1 male) of the same molecule?
**A.** Its value is 0.9.

**Q.** And the “Excretion of Radioactivity” value (Urine 120-144 hours, #2 male)?
**A.** Its value is 1.3.

**Q.** And the “Excretion of Radioactivity” value (Urine 120-144 hours, #3 male)?
**A.** Its value is 1.3.

**Q.** And the “Excretion of Radioactivity” value (Urine 120-144 hours, Mean)?
**A.** Its value is 1.2.

**Q.** What about the “Excretion of Radioactivity” value (Urine 144-162 hours, #1 male) of the same molecule?
**A.** Its value is 0.8.

**Q.** What about the “Excretion of Radioactivity” value (Urine 144-162 hours, #2 male) of the same molecule?
**A.** Its value is 1.0.

**Q.** And the “Excretion of Radioactivity” value (Urine 144-162 hours, #3 male)?
**A.** Its value is 1.2.

**Q.** What about the “Excretion of Radioactivity” value (Urine 144-162 hours, Mean) of the same molecule?
**A.** Its value is 1.0.

**Q.** What about the “Dose remaining in the carcass” value (at 168 hours) of the same molecule?
**A.** Its value is about 13.5%.

**Q.** What about the “Dose remaining in the gastro-intestinal tract” value (at 168 hours) of the same molecule?
**A.** Its value is about 12.5%.

**Q.** What about the “Radioactive dose recovered in feces, mean” value (by 168 hours after dosing) of the same molecule?
**A.** Its value is 65.5%.

**Q.** And the “Radioactive dose recovered in urine, mean” value (by 168 hours after dosing)?
**A.** The value was 8.5%.

**Q.** And the “Dose recovered in excreta and cage washings, mean” value (full 168 hour collection period)?
**A.** The value was 75.0%.

**Q.** What about the “Recovery of administered radioactive dose” value (total, range over animals, 168 hours) of the same molecule?
**A.** The value was 96.7-103.2%.

**Q.** And the “Dose recovered in the excreta” value (up to 120 hours after dosing)?
**A.** Its value is about 66%.
